Data taken from PubChem BioAssay (NCI).
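Interpolation was linear, between the two tested concentrations surrounding the appropriate level; five concentrations were tested over 48 hours in 96-well plates. TGI denotes the concentration required for complete inhibition of growth.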

Assays:
Experiment in all cases: DTP human tumour cell line panel, 48 h
DMS 273 small cell lung = system: DMS 273 small cell lung
HCC-2998 colon = system: HCC-2998 colon
ACHN renal = system: ACHN renal
RPMI-8226 leukemia = system: RPMI-8226 leukemia
RXF-631 renal = system: RXF-631 renal
KM20L2 colon = system: KM20L2 colon
TK-10 renal = system: TK-10 renal
SNB-75 CNS = system: SNB-75 CNS
OVCAR-5 ovarian = system: OVCAR-5 ovarian
XF 498 CNS = system: XF 498 CNS
MOLT-4 leukemia = system: MOLT-4 leukemia
UACC-257 melanoma = system: UACC-257 melanoma
COLO 205 colon = system: COLO 205 colon
SK-MEL-5 melanoma = system: SK-MEL-5 melanoma
UACC-62 melanoma = system: UACC-62 melanoma
SNB-78 CNS = system: SNB-78 CNS
A549 NSCLC = system: A549 NSCLC
SW-620 colon = system: SW-620 colon
EKVX NSCLC = system: EKVX NSCLC
CCRF-CEM leukemia = system: CCRF-CEM leukemia
OVCAR-3 ovarian = system: OVCAR-3 ovarian
SNB-19 CNS = system: SNB-19 CNS
786-0 renal = system: 786-0 renal
SF-295 CNS = system: SF-295 CNS
KM12 colon = system: KM12 colon
HCT-15 colon = system: HCT-15 colon
RXF 393 renal = system: RXF 393 renal
LXFL 529 NSCLC = system: LXFL 529 NSCLC
DLD-1 colon = system: DLD-1 colon
IGROV1 ovarian = system: IGROV1 ovarian
HL-60(TB) leukemia = system: HL-60(TB) leukemia
U251 CNS = system: U251 CNS
UO-31 renal = system: UO-31 renal
M14 melanoma = system: M14 melanoma
NCI-H460 lung = system: NCI-H460 lung
SK-MEL-28 melanoma = system: SK-MEL-28 melanoma
SF-268 CNS = system: SF-268 CNS
SN12C renal = system: SN12C renal
OVCAR-8 ovarian = system: OVCAR-8 ovarian
NCI-H23 lung = system: NCI-H23 lung
HOP-62 NSCLC = system: HOP-62 NSCLC
OVCAR-4 ovarian = system: OVCAR-4 ovarian
DMS 114 small cell lung = system: DMS 114 small cell lung
SK-MEL-2 melanoma = system: SK-MEL-2 melanoma
NCI-H522 lung = system: NCI-H522 lung
HCT-116 colon = system: HCT-116 colon
M19-MEL melanoma = system: M19-MEL melanoma
HT29 colon = system: HT29 colon
HOP-92 NSCLC = system: HOP-92 NSCLC
SF-539 CNS = system: SF-539 CNS
MALME-3M melanoma = system: MALME-3M melanoma
K-562 leukemia = system: K-562 leukemia
LOX IMVI melanoma = system: LOX IMVI melanoma
SR leukemia = system: SR leukemia
HOP-18 NSCLC = system: HOP-18 NSCLC
A498 renal = system: A498 renal
NCI-H226 lung = system: NCI-H226 lung
SK-OV-3 ovarian = system: SK-OV-3 ovarian

## COC(=O)C1=C(C(=O)OC)C23CC1C1C(C(=O)OC)=C(C(=O)OC)C12C1C=CC3C2C(=O)OC(=O)C21 (configuration not stated)
DMS 273 small cell lung
  TGI: > 100 µM
HCC-2998 colon
  TGI: > 100 µM
ACHN renal
  TGI: > 100 µM
RPMI-8226 leukemia
  TGI: > 100 µM
RXF-631 renal
  TGI: > 100 µM
KM20L2 colon
  TGI: > 100 µM
TK-10 renal
  TGI: > 100 µM
SNB-75 CNS
  TGI: 47.7 µM
OVCAR-5 ovarian
  TGI: > 100 µM
XF 498 CNS
  TGI: > 100 µM
MOLT-4 leukemia
  TGI: > 100 µM
UACC-257 melanoma
  TGI: > 100 µM
COLO 205 colon
  TGI: 64.9 µM
SK-MEL-5 melanoma
  TGI: > 100 µM
UACC-62 melanoma
  TGI: > 100 µM
SNB-78 CNS
  TGI: > 100 µM
A549 NSCLC
  TGI: > 100 µM
SW-620 colon
  TGI: > 100 µM
EKVX NSCLC
  TGI: > 100 µM
CCRF-CEM leukemia
  TGI: > 100 µM
OVCAR-3 ovarian
  TGI: 17.6 µM
SNB-19 CNS
  TGI: > 100 µM
786-0 renal
  TGI: > 100 µM
SF-295 CNS
  TGI: > 100 µM
KM12 colon
  TGI: > 100 µM
HCT-15 colon
  TGI: > 100 µM
RXF 393 renal
  TGI: > 100 µM
LXFL 529 NSCLC
  TGI: > 100 µM
DLD-1 colon
  TGI: > 100 µM
IGROV1 ovarian
  TGI: > 100 µM
HL-60(TB) leukemia
  TGI: > 100 µM
U251 CNS
  TGI: > 100 µM
UO-31 renal
  TGI: > 100 µM
M14 melanoma
  TGI: > 100 µM
NCI-H460 lung
  TGI: > 100 µM
SK-MEL-28 melanoma
  TGI: > 100 µM
SF-268 CNS
  TGI: > 100 µM
SN12C renal
  TGI: > 100 µM
OVCAR-8 ovarian
  TGI: > 100 µM
NCI-H23 lung
  TGI: > 100 µM
HOP-62 NSCLC
  TGI: > 100 µM
OVCAR-4 ovarian
  TGI: > 100 µM
DMS 114 small cell lung
  TGI: 80.3 µM
SK-MEL-2 melanoma
  TGI: > 100 µM
NCI-H522 lung
  TGI: 63.5 µM
HCT-116 colon
  TGI: > 100 µM
M19-MEL melanoma
  TGI: > 100 µM
HT29 colon
  TGI: > 100 µM
HOP-92 NSCLC
  TGI: > 100 µM
SF-539 CNS
  TGI: > 100 µM
MALME-3M melanoma
  TGI: > 100 µM
K-562 leukemia
  TGI: > 100 µM

## Cc1c(-c2nnc(-c3ccc(Cl)cc3)o2)c(=O)n(-c2ccccc2)n1C
DMS 273 small cell lung
  TGI: > 100 µM
HCC-2998 colon
  TGI: > 100 µM
ACHN renal
  TGI: > 100 µM
RPMI-8226 leukemia
  TGI: > 100 µM
KM20L2 colon
  TGI: > 100 µM
TK-10 renal
  TGI: > 100 µM
LOX IMVI melanoma
  TGI: > 100 µM
SNB-75 CNS
  TGI: > 100 µM
XF 498 CNS
  TGI: > 100 µM
MOLT-4 leukemia
  TGI: > 100 µM
UACC-257 melanoma
  TGI: > 100 µM
COLO 205 colon
  TGI: > 100 µM
SR leukemia
  TGI: > 100 µM
UACC-62 melanoma
  TGI: > 100 µM
HOP-18 NSCLC
  TGI: > 100 µM
SNB-78 CNS
  TGI: > 100 µM
A549 NSCLC
  TGI: > 100 µM
SW-620 colon
  TGI: > 100 µM
EKVX NSCLC
  TGI: > 100 µM
CCRF-CEM leukemia
  TGI: > 100 µM
A498 renal
  TGI: > 100 µM
OVCAR-3 ovarian
  TGI: > 100 µM
SNB-19 CNS
  TGI: > 100 µM
786-0 renal
  TGI: > 100 µM
SF-295 CNS
  TGI: > 100 µM
KM12 colon
  TGI: > 100 µM
HCT-15 colon
  TGI: > 100 µM
RXF 393 renal
  TGI: > 100 µM
LXFL 529 NSCLC
  TGI: > 100 µM
NCI-H226 lung
  TGI: > 100 µM
DLD-1 colon
  TGI: > 100 µM
IGROV1 ovarian
  TGI: > 100 µM
HL-60(TB) leukemia
  TGI: > 100 µM
U251 CNS
  TGI: > 100 µM
UO-31 renal
  TGI: > 100 µM
M14 melanoma
  TGI: > 100 µM
NCI-H460 lung
  TGI: > 100 µM
SK-MEL-28 melanoma
  TGI: > 100 µM
SF-268 CNS
  TGI: > 100 µM
SK-OV-3 ovarian
  TGI: > 100 µM
SN12C renal
  TGI: > 100 µM
OVCAR-8 ovarian
  TGI: > 100 µM
NCI-H23 lung
  TGI: > 100 µM
HOP-62 NSCLC
  TGI: > 100 µM
OVCAR-4 ovarian
  TGI: > 100 µM
DMS 114 small cell lung
  TGI: > 100 µM
SK-MEL-2 melanoma
  TGI: > 100 µM
NCI-H522 lung
  TGI: > 100 µM
HCT-116 colon
  TGI: > 100 µM
M19-MEL melanoma
  TGI: > 100 µM
HT29 colon
  TGI: > 100 µM
HOP-92 NSCLC
  TGI: > 100 µM
SF-539 CNS
  TGI: 90.1 µM
MALME-3M melanoma
  TGI: > 100 µM
K-562 leukemia
  TGI: > 100 µM
